Laboratory results reported in ChEMBL document CHEMBL4376804, “Review of Transient Receptor Potential Canonical (TRPC5) Channel Modulators and Diseases” (J Med Chem, 2019).

Tests used:
Type in all cases: cell-based
[1] = target: T1, Short transient receptor potential channel 4 (Mus musculus, UniProt Q9QUQ5); assay: Inhibition of mouse TRPC4 beta expressed in HEK293 cells co-expressing mu-opioid receptor assessed as reduction in DAMGO-induced membrane potential by FMP-2 dye based assay
T1 sequence (Q9QUQ5 whole entry): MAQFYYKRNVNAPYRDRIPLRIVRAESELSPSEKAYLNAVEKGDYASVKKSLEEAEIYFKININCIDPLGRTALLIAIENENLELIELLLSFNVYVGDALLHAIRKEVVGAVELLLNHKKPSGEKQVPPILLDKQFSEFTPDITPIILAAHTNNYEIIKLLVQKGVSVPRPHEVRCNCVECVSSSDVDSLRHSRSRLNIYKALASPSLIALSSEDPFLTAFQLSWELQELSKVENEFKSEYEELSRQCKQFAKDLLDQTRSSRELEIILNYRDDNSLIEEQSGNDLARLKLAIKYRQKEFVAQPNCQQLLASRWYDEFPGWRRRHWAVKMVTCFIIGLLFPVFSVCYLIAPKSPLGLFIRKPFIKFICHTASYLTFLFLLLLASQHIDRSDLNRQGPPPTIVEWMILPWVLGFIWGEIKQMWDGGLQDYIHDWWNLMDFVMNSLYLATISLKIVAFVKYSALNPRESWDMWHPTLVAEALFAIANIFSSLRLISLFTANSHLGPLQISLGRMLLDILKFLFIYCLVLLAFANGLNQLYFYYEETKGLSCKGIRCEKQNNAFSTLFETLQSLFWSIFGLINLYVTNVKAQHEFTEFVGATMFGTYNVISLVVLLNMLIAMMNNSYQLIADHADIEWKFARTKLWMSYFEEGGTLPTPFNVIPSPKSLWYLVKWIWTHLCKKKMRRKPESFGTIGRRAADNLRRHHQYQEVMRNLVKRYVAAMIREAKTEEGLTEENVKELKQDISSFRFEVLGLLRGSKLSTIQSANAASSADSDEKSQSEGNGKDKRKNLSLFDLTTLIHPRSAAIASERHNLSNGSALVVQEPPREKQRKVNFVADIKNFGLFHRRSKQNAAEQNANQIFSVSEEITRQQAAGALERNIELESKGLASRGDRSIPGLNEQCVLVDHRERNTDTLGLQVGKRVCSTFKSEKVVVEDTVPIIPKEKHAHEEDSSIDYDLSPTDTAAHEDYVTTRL

[2] = target: T2, Short transient receptor potential channel 6 (Mus musculus, UniProt Q61143); assay: Inhibition of mouse TRPC6 expressed in HEK293 cells co-expressing M5 receptor assessed as reduction in carbachol-induced membrane potential by FMP-2 dye based assay
T2 sequence (Q61143 whole entry): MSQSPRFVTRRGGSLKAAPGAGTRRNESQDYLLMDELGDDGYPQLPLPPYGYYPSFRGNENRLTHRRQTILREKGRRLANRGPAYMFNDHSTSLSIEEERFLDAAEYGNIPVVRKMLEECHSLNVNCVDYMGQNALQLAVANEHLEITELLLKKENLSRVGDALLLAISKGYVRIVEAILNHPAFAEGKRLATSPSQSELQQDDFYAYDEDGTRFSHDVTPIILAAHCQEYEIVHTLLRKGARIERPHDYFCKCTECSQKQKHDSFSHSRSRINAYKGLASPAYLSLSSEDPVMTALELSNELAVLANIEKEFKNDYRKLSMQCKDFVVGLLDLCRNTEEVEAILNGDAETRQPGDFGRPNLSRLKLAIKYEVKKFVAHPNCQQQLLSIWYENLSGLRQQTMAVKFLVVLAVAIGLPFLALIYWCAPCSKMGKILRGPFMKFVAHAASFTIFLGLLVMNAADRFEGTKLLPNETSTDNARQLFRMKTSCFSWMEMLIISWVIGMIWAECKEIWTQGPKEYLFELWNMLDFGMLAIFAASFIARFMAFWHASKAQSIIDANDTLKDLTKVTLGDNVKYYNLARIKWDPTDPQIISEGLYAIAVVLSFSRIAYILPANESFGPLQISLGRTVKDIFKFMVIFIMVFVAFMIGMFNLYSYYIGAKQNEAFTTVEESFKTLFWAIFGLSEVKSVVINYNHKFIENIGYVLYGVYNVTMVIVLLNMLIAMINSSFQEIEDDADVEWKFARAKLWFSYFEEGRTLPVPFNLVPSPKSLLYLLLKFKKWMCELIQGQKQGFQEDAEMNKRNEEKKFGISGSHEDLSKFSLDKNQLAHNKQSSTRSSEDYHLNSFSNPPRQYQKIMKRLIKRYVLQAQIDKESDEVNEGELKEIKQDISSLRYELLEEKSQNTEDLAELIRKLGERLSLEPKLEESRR

[3] = target: T3, Short transient receptor potential channel 3 (Homo sapiens, UniProt Q13507); assay: Inhibition of human TRPC3 expressed in HEK293 cells assessed as reduction in carbachol-induced membrane potential by FMP-2 dye based assay
T3 sequence (Q13507 whole entry): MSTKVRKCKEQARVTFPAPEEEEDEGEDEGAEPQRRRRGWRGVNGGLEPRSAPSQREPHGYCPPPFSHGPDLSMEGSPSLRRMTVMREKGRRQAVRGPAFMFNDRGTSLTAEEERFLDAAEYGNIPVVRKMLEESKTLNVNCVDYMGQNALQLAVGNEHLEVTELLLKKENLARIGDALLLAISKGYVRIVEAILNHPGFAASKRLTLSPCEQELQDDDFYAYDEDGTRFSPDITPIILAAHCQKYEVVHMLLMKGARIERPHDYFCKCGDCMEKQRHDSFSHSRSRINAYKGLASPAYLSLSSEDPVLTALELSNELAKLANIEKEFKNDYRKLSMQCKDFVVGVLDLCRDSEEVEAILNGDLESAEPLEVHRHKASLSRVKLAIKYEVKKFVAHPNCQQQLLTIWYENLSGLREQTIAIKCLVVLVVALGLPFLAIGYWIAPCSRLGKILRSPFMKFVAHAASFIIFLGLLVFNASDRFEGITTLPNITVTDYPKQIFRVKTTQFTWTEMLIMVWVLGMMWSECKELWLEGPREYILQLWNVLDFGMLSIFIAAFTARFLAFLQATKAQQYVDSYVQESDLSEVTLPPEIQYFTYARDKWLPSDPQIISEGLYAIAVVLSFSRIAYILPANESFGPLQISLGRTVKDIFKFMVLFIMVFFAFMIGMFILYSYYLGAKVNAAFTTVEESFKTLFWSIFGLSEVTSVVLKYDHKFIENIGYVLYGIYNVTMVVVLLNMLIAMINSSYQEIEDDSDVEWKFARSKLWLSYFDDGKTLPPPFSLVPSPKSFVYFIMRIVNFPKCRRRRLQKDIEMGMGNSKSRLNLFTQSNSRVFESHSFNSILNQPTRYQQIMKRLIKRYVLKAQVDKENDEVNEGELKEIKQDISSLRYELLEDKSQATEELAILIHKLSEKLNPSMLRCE

| SMILES | IC50 [1] [µM] | IC50 [2] [µM] | IC50 [3] [µM] |
| --- | --- | --- | --- |
| CC1CCN(c2nc3cc(Cl)ccc3[nH]2)CC1 | 4.1 | 57.1 | 30.4 |
| CC1CCN(c2nc3ccccc3[nH]2)CC1 | 5.2 | 63.8 | 19.3 |

The next lines start with the values.

| IC50 [1] [µM] | IC50 [2] [µM] | IC50 [3] [µM] | SMILES |
| --- | --- | --- | --- |
| 10.2 | > 100 | > 100 | c1ccc2[nH]c(NC34CC5CC(CC(C5)C3)C4)nc2c1 |
| 4.3 | > 100 | > 100 | CC1CCCCN1c1nc2ccccc2[nH]1 (stereo not drawn) |
| 5.5 | > 100 | > 100 | c1ccc2[nH]c(N3CCCC3)nc2c1 |
| 11 | > 100 | > 100 | c1ccc2[nH]c(N3CCCCC3)nc2c1 |
